Format in all cases: functional
Test [1] deals with Helicobacter pylori. Briefly: Antibacterial activity against Helicobacter pylori NCTC-11637 after 5 days by serial dilution method.
Test [2] has as its system Helicobacter pylori. Briefly: Antibacterial activity against Helicobacter pylori NCTC-11637 after 24 hrs. As to conditions: NCTC-11637, 24 h.
The subject of test [3] is Helicobacter pylori. Briefly: Antibacterial activity against Helicobacter pylori NCTC-11637 assessed as zone of inhibition at 0.5 ug/disk. The note with it: read-out: IZ.
Test [4] relates to Helicobacter pylori. Briefly: Antibacterial activity against Helicobacter pylori NCTC-11637 assessed as zone of inhibition at 500 ug/disk. The note with it: read-out: IZ.
For test [5], the system named is Helicobacter pylori. The test is described as follows: Antibacterial activity against Helicobacter pylori assessed NCTC-11637 as zone of inhibition at 2 ug/disk. As to conditions: read-out: IZ.
Test [6] deals with Helicobacter pylori. The test is described as follows: Antibacterial activity against Helicobacter pylori NCTC-11637 assessed as zone of inhibition at 10 ug/disk. As to conditions: read-out: IZ.
For test [7], the system named is Helicobacter pylori. The test is described as follows: Antibacterial activity against Helicobacter pylori assessed NCTC-11637 as zone of inhibition at 0.02 ug/disk. The note with it: read-out: IZ.
Test [8] concerns Helicobacter pylori. Briefly: Antibacterial activity against Helicobacter pylori assessed NCTC-11637 as zone of inhibition at 0.01 ug/disk. The note with it: read-out: IZ.
[9] abbreviates: Helicobacter pylori, 120 h, read-out: MBC.

Converted amounts (≈) assume the structure as drawn.

The term MBC denotes the lowest tested concentration that kills the bacteria rather than only halting them. As a reminder, the MIC is the lowest concentration that inhibits growth of the organism. A lower MIC goes with a more susceptible organism.

As for `COc1cc(OC)c2c(c1)C(CCCCCCCCCC(CCC(C)=O)OC(C)=O)OC2=O` (stereo not drawn), the MBC in test [1] (setting [9]) turned out to be 2.5 µg/mL (≈ 5.4 µM). In addition, in test [2], inhibition of growth (MIC) required 1.25 µg/mL (≈ 2.7 µM). Further, the zone of inhibition at 0.5 µg/disc in test [3] is 15 mm.

On to `COc1cc(OC)c2c(c1)[C@@H](CCCCC[C@H]1CCC[C@]3(CC[C@@H](C)O3)O1)OC2=O`, for which the minimal bactericidal concentration (MBC) in test [1] (setting [9]) is 1 µg/mL (≈ 2.39 µM). This compound also had an MIC in test [2] of 0.5 µg/mL (≈ 1.19 µM).

Take `COc1cc(OC)c2ccn(CCCCCCCCCC(CCC(C)=O)OC(C)=O)c2c1` (stereo not drawn): the MBC in test [1] (setting [9]) was greater than 100 µg/mL. In test [2], this compound returned a minimal inhibitory concentration (MIC) greater than 100 µg/mL.

For the compound `COc1cc(OC)c2ccn(CCCCCCCCCCCCC(C)O)c2c1` (stereo not drawn), the MBC in test [1] (setting [9]) was greater than 100 µg/mL. In test [2], the minimal inhibitory concentration (MIC) is greater than 100 µg/mL.

`COc1cc(OC)c2ccn(CCCCCCCCCCCCC(C)=O)c2c1`: in test [1] (setting [9]), the MBC was 50 µg/mL (≈ 129 µM). The same compound had an MIC in test [2] of 50 µg/mL (≈ 129 µM).

For the compound `COc1cc(OC)c2ccn(CCCCCCCCCC(=O)CCC(C)=O)c2c1`, the MBC in test [1] (setting [9]) was determined as 20 µg/mL (≈ 49.8 µM). The same compound showed an MIC in test [2] of 10 µg/mL (≈ 24.9 µM).

`COc1cc(OC)c2ccn(CCCC3CCCC4(CCCCO4)O3)c2c1` (stereo not drawn): the MBC in test [1] (setting [9]) came to 40 µg/mL (≈ 107 µM). Besides, the MIC in test [2] is 20 µg/mL (≈ 53.5 µM).

In the case of `COc1cc(OC)c2c(c1)C(CCCCCCCCCCCCC(C)O)OC2=O` (stereo not drawn), in test [1] (setting [9]), the MBC is 50 µg/mL (≈ 123 µM). In test [2], this compound returned an MIC of 12.5 µg/mL (≈ 30.7 µM). Further, in test [4], the zone of inhibition at 500 µg/disc came to 15 mm.

`COc1cc(OC)c2c(c1)[C@H](CCCCCC[C@H]1CC[C@]3(CC[C@H](C)O3)O1)OC2=O`: the MBC in test [1] (setting [9]) was determined as 100 µg/mL (≈ 239 µM). 20 µg/mL (≈ 47.8 µM) was the least that counted as inhibitory in test [2] (MIC).

Regarding `COc1cc(OC)c2c(c1)[C@@H](CCCCCC[C@H]1CC[C@@]3(CC[C@H](C)O3)O1)OC2=O`, the MBC in test [1] (setting [9]) worked out at 0.3 µg/mL (≈ 0.717 µM). The compound further came in with an MIC in test [2] of 0.3 µg/mL (≈ 0.717 µM).

`COc1cc(OC)c2c(c1)[C@H](CCCCCC[C@H]1CC[C@@]3(CC[C@H](C)O3)O1)OC2=O`: the MBC in test [1] (setting [9]) is 100 µg/mL (≈ 239 µM). Moreover, the MIC in test [2] was found to be 20 µg/mL (≈ 47.8 µM).

With `COc1cc(OC)c2c(c1)[C@@H](CCCCCC[C@H]1CC[C@]3(CC[C@H](C)O3)O1)OC2=O`, the MBC in test [1] (setting [9]) came to 0.3 µg/mL (≈ 0.717 µM). In test [2], this compound showed an MIC of 0.3 µg/mL (≈ 0.717 µM).

As for `COc1cc(OC)c2c(c1)C(CCCCCCCCCC(=O)CCC(C)=O)OC2=O` (stereo not drawn), in test [5], the zone of inhibition at 2 µg/disc was determined as 15 mm. Besides, the MBC in test [1] (setting [9]) came out at 5 µg/mL (≈ 11.9 µM). The MIC in test [2] is 2.5 µg/mL (≈ 5.97 µM).

Consider `COc1cc(OC)c2c(c1)C(CCCCCCCCCCCCC(C)=O)OC2=O` (stereo not drawn), for which, in test [1] (setting [9]), the MBC was 10 µg/mL (≈ 24.7 µM). In test [2], this compound gave an MIC of 10 µg/mL (≈ 24.7 µM). The zone of inhibition at 10 µg/disc in test [6] was 15 mm.

Turning to `COc1cc(OC)c2ccn(CCCCCCCCC(C)=O)c2c1`, the MBC in test [1] (setting [9]) stood at 10 µg/mL (≈ 30.2 µM). The same compound returned an MIC in test [2] of 5 µg/mL (≈ 15.1 µM).

Consider `COc1cc(OC)c2c(c1)[C@@H](CCCCC[C@H]1CCC[C@]3(CC[C@H](C)O3)O1)OC2=O`, for which the MBC in test [1] (setting [9]) turned out to be 0.125 µg/mL (≈ 0.299 µM). The MIC in test [2] is 0.125 µg/mL (≈ 0.299 µM).

In turn, `COc1cc(OC)c2c(c1)C(CCCCCCC1CCC3(CCC(C)O3)O1)OC2=O` (stereo in doubt) gave an MBC in test [1] of 0.2 µg/mL (≈ 0.478 µM). For the same compound, in test [2], 0.02 µg/mL (≈ 0.0478 µM) was the least that counted as inhibitory (MIC).

For the compound `COc1cc(OC)c2c(c1)C(CCCCCCC1CCC3(CCC(C)O3)O1)OC2=O` (stereo in doubt; 5), the minimal bactericidal concentration (MBC) in test [1] is 0.02 µg/mL (≈ 0.0478 µM). For the same compound, the zone of inhibition at 0.02 µg/disc in test [7] stood at 15 mm.

In the case of `COc1cc(O)cc2c1C(=O)OC2CCCCCC1CCCC2(CCC(C)O2)O1` (stereo not drawn) [SPIROLAXINE], the zone of inhibition at 0.01 µg/disc in test [8] was 15 mm. In addition, the MBC in test [1] (setting [9]) was greater than 2 µg/mL. The same compound yielded an MIC in test [2] of 0.2 µg/mL (≈ 0.494 µM).

The record behind these values is ChEMBL document CHEMBL1150341, “Anti-Helicobacter pylori activity of derivatives of the phthalide-containing antibacterial agents spirolaxine methyl ether, CJ-12,954, CJ-13,013, CJ-13,102, CJ-13,104, CJ-13,108 and CJ-13,015” (2008).
